This is an account of results in patent publication US10416175B2, “Opioid detection” (Randox Laboratories Limited, priority 2015, dated 2019).

Data set [1] relates to Neogen Tramadol commercial immunoassay. Conditions: cited from earlier work.
Data set [2] deals with Randox Tramadol commercial immunoassay. The settings on record: cited from earlier work.
Data set [3] has as its system Immunanalysis Tramadol commercial immunoassay. Conditions: cited from earlier work.
Data set [4] concerns IDS Tramadol commercial immunoassay. Conditions: cited from earlier work.
Data set [5] deals with antibody raised against Immunogen-2. Put plainly: Competitive ELISA with polyclonal antibody raised against Immunogen-2, Tracer-1 as detecting agent. Type of data set: binding, sheep. Conditions: for % CR: relative to O-desmethyltramadol = 100. On the procedure:
Pre-immunization blood samples are collected from sheep. In order to generate polyclonal antisera, 2 mgs of the immunogen (structure 1) is prepared in PBS, mixed at a ratio of 50% immunogen in PBS to 50% Freund's Complete adjuvant (Sigma, Product Number F5881) and emulsified by repeatedly passing the mixture through a tip on the end of a 1 ml syringe, until it reaches the required semi-solid consistency. 1.1 ml of the emulsified mixture is injected intramuscularly into each host animal (sheep) as the primary immunisation dose. Further injections (boosts) are prepared (1 mg of immunogen is prepared in PBS and mixed at a ratio of 50% Immunogen in PBS/50% Freunds Incomplete adjuvant, Sigma, Product Number—F5506). Boost injections are delivered intramuscularly at monthly intervals, 1 ml per animal. Serum is sampled monthly by collection of whole blood from the jugular vein for evaluation of the antibody titre. The degree of antibody purification required depends on the intended application. For many purposes, there is no requirement for purification of the serum, however, in other cases, such as, where the antibody is to be immobilised on a solid support, purification steps (such as caprylic acid/ammonium sulphate precipitation) can be taken to remove undesired material and eliminate non-specific binding. In another embodiment, the purification is by immunoglobulin precipitation, antigen-specific affinity purification, column chromatography, such as, size-exclusion chromatography or ion exchange chromatography.
The polyclonal antibody raised against Immunogen-2 of Example 9 was removed from fridge or freezer and brought to room temperature. The antibody was diluted to 2.5 μg/ml in 10 mM Tris pH 8.5 and all appropriate wells are coated at 125 μl/well at 37° C. for 2 hours or at 4° C. overnight. The plate was washed 4 times over a period of 10 minutes with working strength tris-buffered saline and tween 20 (TBST) wash buffer and tapped dry. 50 μl of working strength TBST was pipetted into the appropriate wells. Dilutions of target analyte and potential crossreactant(s) were prepared in working strength TBST and pipetted (50 μl) into the appropriate wells beginning with the lowest concentration to the highest concentration. Hapten-HRP (Tracer-1) conjugate at the appropriate concentration was prepared in conjugate dilution buffer and 75 μl into pipetted into appropriate wells. The plate was tapped gently to mix contents, sealed and incubated at 25° C. for 1 hour. The plate was washed 6 times over a 10-15 minute period (3 quick washes followed by 3 additional washes over 12 minutes) and tapped dry thoroughly onto tissue paper. Trimethylbenzidine (TMB) solution (125 μl) was added to each well and tapped gently, and the plate was incubated at room temperature for 20 minutes in the dark. The reaction was stopped by addition of 125 μl of 0.2 M sulphuric acid to each well and the absorbance measured at 450 nm using an ELISA plate reader (Biotek Elx800).

For data set [6] the following is noted: over 24-72 hours, following oral administration of tramadol; cited from earlier work.
In data set [7] the test system is Bio-Quant Tramadol commercial immunoassay. The settings on record: cited from earlier work.
Data set [8] relates to antibody specific to mitragynine. Put plainly: ELISA for mitragynine and 8-desmethylmitragynine (polyclonal antibody to mitragynine). The settings on record: for % CR: based on 100% specificity to mitragynine; for IC50: standard concentration which produces 50% B/B0. The data set is classed as binding. The text has this:
In one embodiment, the antibodies and immunoassay methods and kits for mitragynine (kratom), are as described in U.S. patent application Ser. No. 14/184,422, filed Feb. 19, 2014 entitled “Immunoassay for Detecting Kratom, its Constituents and their Use” the entire contents of which are incorporated herein by reference. In particular, U.S. patent application Ser. No. 14/184,422 describes a polyclonal antibody which that binds specifically to an epitope of one or more of mitragynine, 8-desmethylmitragynine, 8-sulphonylmitragynine, and 8-glucuronidylmitragynine which was raised to an immunogen having the structure of:
[drawing 5] • wherein HRP is horseradish peroxidase.

For data set [9] the test system is unchanged. Conditions: polyclonal antibody of U.S. application 14/184,422, based on 100% to mitragynine; cited from earlier work.
Setting [10] is: antibodies from three sheep immunised with Immunogen-2.

In brackets after ≈: the same amount, converted by molar mass. Several values for one entry are separate records, joined by “and”; a condition that tells them apart may be missing. Identical values can stand only once. Counter-ions that a name gives are not always drawn.

Consider “(±)-cis-2-[(dimethylamino)methyl]-1-(3 hydroxyphenyl)-cyclohexanol [O-Desmethyltramadol]”, for which the “% Cross-reactivity” value in data set [1] is 27%; in data set [2], 57%; in data set [3], 6%; in [4], 40%; in data set [7], 100%. Also, the B/Bo in data set [5] (0.156 ng/ml analyte) came to 53; in data set [5] (0.313 ng/ml analyte), 37; in data set [5] (0.625 ng/ml analyte), 24; in data set [5] (1.250 ng/ml analyte) it was 16; in data set [5] (2.500 ng/ml analyte), 10; in data set [5] (5.000 ng/ml analyte) it was 6. In [5] (10.000 ng/ml analyte), this compound came in with a B/Bo of 4. Besides, in data set [5] (setting [10]), the “IC50 of antibodies to O-desmethyltramadol” value is 0.178 ng/mL and 0.181 ng/mL and 0.214 ng/mL. In [5], the “% CR” value worked out at 100%. Besides, in [6], the Urinary excretory amount was 5-15%.

Take `COc1cccc([C@]2(O)CCCC[C@H]2CN(C)C)c1` (racemic) [Tramadol, (±)-cis-2-[(dimethylamino)methyl]-1-(3-methoxyphenyl)cyclohexanol hydrochloride]: the Urinary excretory amount in data set [6] was 12-32%.

In the case of `CC[C@@H]1CN2CCc3c([nH]c4cccc(O)c34)[C@@H]2C[C@@H]1/C(=C\OC)C(=O)OC` [8-Desmethylmitragynine, 8-desmethylmitragynine], the B/Bo in data set [8] (0.313 ng/ml analyte) is 74; in [8] (0.625 ng/ml analyte) it was 63; in data set [8] (1.250 ng/ml analyte), 54; in data set [8] (2.500 ng/ml analyte) it was 42; in data set [8] (5.000 ng/ml analyte) it was 29; in data set [8] (10.000 ng/ml analyte), 18. For the same compound, the B/Bo in data set [8] (20.000 ng/ml analyte) is 13. Besides, the “% CR” value in data set [8] is given as 77.87%. The IC50 in data set [8] was 1.532 ng/mL (≈ 3.98 nM). For the same compound, the cross-reactivity entry in data set [9] is “about 77.87%”.

In the case of `CNC[C@@H]1CCCC[C@@]1(O)c1cccc(OC)c1` (racemic) [N-Desmethyltramadol, (±)-cis-2-[(methylamino)methyl]-1-(3-methoxyphenyl)cyclohexanol], the “% Cross-reactivity” value was 6% in [1]; 4% in data set [2]; 44% in data set [3]; <2% in data set [4]; <5% in data set [7]. The B/Bo in data set [5] (0.156 ng/ml analyte) is reported as 97; in data set [5] (0.313 ng/ml analyte), 98; in [5] (0.625 ng/ml analyte), 99; in data set [5] (1.250 ng/ml analyte), 100; in data set [5] (2.500 ng/ml analyte) it was 99; in data set [5] (5.000 ng/ml analyte), 97. The compound also showed a B/Bo in [5] (10.000 ng/ml analyte) of 98. In data set [5] (setting [10]), the “cross-reactivity (in words)” value is recorded as “no cross-reactivity”. The IC50 in data set [5] (antibody raised against Immunogen-2, Tracer-1) is given as >>10 ng/ml. For the same compound, the “binding (in words)” value in data set [5] (at the concentrations tested (Table 2)) is “no appreciable binding”. Also, the “% CR” value in data set [5] is <<1.78%. The Urinary excretory amount in data set [6] is reported as 2-31%.

As to `CC[C@@H]1CN2CCc3c([nH]c4cccc(OC)c34)[C@@H]2C[C@@H]1/C(=C\OC)C(=O)OC` [Mitragynine, mitragynine], the B/Bo was 75 in data set [8] (0.313 ng/ml analyte); 63 in data set [8] (0.625 ng/ml analyte); 49 in data set [8] (1.250 ng/ml analyte); 37 in data set [8] (2.500 ng/ml analyte); 25 in data set [8] (5.000 ng/ml analyte); 17 in data set [8] (10.000 ng/ml analyte). Moreover, the B/Bo in data set [8] (20.000 ng/ml analyte) was determined as 11. Further, the “% CR” value in data set [8] is reported as 100.00%. The same compound had an IC50 in data set [8] of 1.193 ng/mL (≈ 2.99 nM). The cross-reactivity in data set [9] is recorded as 100%.
